Earlier results as cited in patent publication EP0398143B1, “Labeled chemotactic peptides to image focal sites of infection or inflammation” (THE GENERAL HOSPITAL CORPORATION, priority 1989, dated 1990).
Non-standard residues stand in square brackets, D forms with d. Residues, ends and D or L forms follow the SMILES beside them. *: point of attachment. Nle = CCCC[C@H](N)C(=O)O; For = O=C*

Molecular target: T1, receptors on human neutrophils (Homo sapiens, UniProt P21462)
T1 construct: host or cells: human neutrophils (endogenous receptor)
T1 sequence (P21462 1-350): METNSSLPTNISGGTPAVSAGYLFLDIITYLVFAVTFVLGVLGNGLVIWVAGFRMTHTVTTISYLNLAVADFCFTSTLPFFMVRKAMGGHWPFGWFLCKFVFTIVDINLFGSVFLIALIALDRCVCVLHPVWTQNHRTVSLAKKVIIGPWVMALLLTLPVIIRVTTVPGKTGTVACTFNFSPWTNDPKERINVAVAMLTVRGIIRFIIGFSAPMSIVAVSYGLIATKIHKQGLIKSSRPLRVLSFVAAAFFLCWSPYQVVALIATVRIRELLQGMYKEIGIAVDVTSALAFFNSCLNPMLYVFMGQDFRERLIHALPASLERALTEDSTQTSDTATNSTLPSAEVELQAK
Settings: peptide labeled with ¹²⁵I at the Tyr residue

binding to receptors on human neutrophils: bind strongly
Compound: CCCC[C@H](NC=O)C(=O)N[C@@H](CC(C)C)C(=O)N[C@@H](Cc1ccccc1)C(=O)N[C@@H](CCCC)C(=O)N[C@@H](Cc1ccc(O)cc1)C(=O)N[C@@H](CCCCN)C(=O)O [N-formyl-Nle-Leu-Phe-Nle-Tyr-Lys] (For-[Nle]LF[Nle]YK-OH)
